The values that follow come from patent US20230146455A1, “TREATMENT OF INFLAMMATORY DISEASES WITH PEPTIDES AND PHARMACEUTICAL COMPOSITIONS” (Yuyu Pharma, Inc., priority 2020, published 2023).

Test [1] deals with cytokine and chemokine release in human peripheral blood mononuclear cells (hPBMCs). The test is described as follows: Luminex multiplex, 30 cytokines and chemokines, LPS stimulated hPBMCs, main study (Example 8, Study 1), whole panel. In kind it is cell-based. To be noted: LPS 5 ug/mL 24 hrs; up to 500 nM. As to the method: Human PBMCs frozen in a cryopreserve was thawed, washed with Hank's Balanced Salt Solution containing 10% Fetal bovine serum, and seeded onto a 24-well plate at a density of 1×10^6 cells/well with culture RPMI media containing 10% Fetal bovine serum in growth media in a 24 well plate for 12, 24, and 48 hrs and maintained at 37° C. in an atmosphere of 95% air and 5% CO2.
(§1) Human PBMCs were pretreated with YY-101, YDE-011, YDE-043 or reference compound; Xiidra® at various concentration (ranging from […] to 500 nM) for 2 h before stimulation. An equal volume of 0.5% DMSO was used as a vehicle control. Then, the cells were treated with LPS at 5 ug/ml, which was selected based on the pilot study. The supernatants from treated cells were harvested at 24 h and placed in a 96 well for Luminex cytokine & chemokine profiling using a Luminex 200 multiplex assay (Luminex; R&D system, USA).
(§2) The main study arm with triplicate wells per group in a 24-well plate: • 1. Blank • 2. PBMC: 0.5% DMSO • 3. PBMC+LPS (5 ug/ml) • 4. PBMC+YY-101 500 nM • 5. PBMC+YY-101 50 nM • 6. PBMC+YY-101 5 nM • 7. PBMC+YY-101 0.5 nM • 8. PBMC+LPS (5 ug/ml)+Xiidra® 500 nM • 9. PBMC+LPS (5 ug/ml)+Xiidra® 50 nM • 10. PBMC+LPS (5 ug/ml)+Xiidra® 5 nM • 11. PBMC+LPS (5 ug/ml)+Xiidra® 0.5 nM • 12. PBMC+LPS (5 ug/ml)+Xiidra® 0.05 nM • 13. PBMC+LPS (5 ug/ml)+Xiidra® 0.005 nM • 14. PBMC+LPS (5 ug/ml)+YY-101 500 nM • 15. PBMC+LPS (5 ug/ml)+YY-101 50 nM • 16. PBMC+LPS (5 ug/ml)+YY-101 5 nM • 17. PBMC+LPS (5 ug/ml)+YY-101 0.5 nM • 18. PBMC+LPS (5 ug/ml)+YY-101 0.05 nM • 19. PBMC+LPS (5 ug/ml)+YY-101 0.005 nM • 20. PBMC+LPS (5 ug/ml)+YDE-011 500 nM • 21. PBMC+LPS (5 ug/ml)+YDE-011 50 nM • 22. PBMC+LPS (5 ug/ml)+YDE-011 5 nM • 23. PBMC+LPS (5 ug/ml)+YDE-011 0.5 nM • 24. PBMC+LPS (5 ug/ml)+YDE-011 0.05 nM • 25. PBMC+LPS (5 ug/ml)+YDE-011 0.005 nM • 26. PBMC+LPS (5 ug/ml)+YDE-043 500 nM • 27. PBMC+LPS (5 ug/ml)+YDE-043 50 nM • 28. PBMC+LPS (5 ug/ml)+YDE-043 5 nM • 29. PBMC+LPS (5 ug/ml)+YDE-043 0.5 nM • 30. PBMC+LPS (5 ug/ml)+YDE-043 0.05 nM • 31. PBMC+LPS (5 ug/ml)+YDE-043 0.005 nM
Multiplex assay was used to measure 30 cytokines and chemokines. The 1:200 diluted cell supernatant and serial dilution of the standard were dispensed into a 96 well plate at 50 ul/well. Then, the pre-mixed cocktail of antibody-coated magnetic beads was dispensed at 50 ul/well and incubated at room temperature for 2 h in a horizontal orbital microplate shaker at 800±500 rpm. The beads were washed using a magnetic device to prevent loss. The biotin-antibody was dispensed in 50 ul of each well and incubated at room temperature for 1 h in a shaker at 800±500 rpm. […] The data was calculated with a standard five-parameter logistic nonlinear regression analysis of the data (xPonent software 4.2, USA). […]

The subject of another test is CCL2/MCP-1. Kind of test: Example 8 main study Luminex, LPS hPBMCs: CCL2/MCP-1. In kind it is cell-based, human. Conditions: for CCL2/MCP-1 Concentration: single replicates. Here is the method: as §1, §2
Multiplex assay was used to measure 30 cytokines and chemokines. The 1:200 diluted cell supernatant and serial dilution of the standard were dispensed into a 96 well plate at 50 ul/well. Then, the pre-mixed cocktail of antibody-coated magnetic beads was dispensed at 50 ul/well and incubated at room temperature for 2 h in a horizontal orbital microplate shaker at 800±500 rpm. The beads were washed using a magnetic device to prevent loss. The biotin-antibody was dispensed in 50 ul of each well and incubated at room temperature for 1 h in a shaker at 800±500 rpm. After washing, streptavidin-PE was added at 50 ul/well and incubated at room temperature for 30 min in a shaker under the same conditions. Finally, after washing, wash buffer (100 ul/well) was added to the plate and incubated in a shaker for 2 min. The Luminex™ 200 setting were set according to the manufacturer's protocol. The data was calculated with a standard five-parameter logistic nonlinear regression analysis of the data (xPonent software 4.2, USA). Results were presented as concentration (ng/ml or pg/ml).

Setting [2] is: PBMC + LPS(5 ug/ml) + YDE043 0.005 nM.
Where [3] appears, read: PBMC + LPS(5 ug/ml) + YDE043 0.05 nM.
[4] abbreviates: PBMC + LPS(5 ug/ml) + YDE043 0.5 nM.
Setting [5] is: PBMC + LPS(5 ug/ml) + YDE043 5 nM.
The mark [6] stands for this setting: PBMC + LPS(5 ug/ml) + YDE043 50 nM.
The mark [7] stands for this setting: PBMC + LPS(5 ug/ml) + YDE043 500 nM.

Structures are written as SMILES. “And” between values parts separate entries of the source, which are not always exact repeats. Equal entries are not always repeated. “Also recorded” adds a separate entry of the source. Where a SMILES comes first, the peptide text is derived from it. [ ]: non-standard residue; d: D form. Hyp = O=C(O)[C@@H]1C[C@@H](O)CN1

`CC(C)C[C@H](NC(=O)[C@H](CCC(N)=O)NC(=O)CNC(=O)[C@@H]1C[C@@H](O)CN1)C(=O)NCC(=O)O` [YDE-043] (H-[Hyp]GQLG-OH; N-terminus and C-terminus assumed): the “LPS-induced cytokine/chemokine levels, whole panel (in words)” value in test [1] is “more effectively lowered cytokine and chemokine production; also recorded: potently and significantly reduced pro-inflammatory cytokine/chemokine production”. Also, the “CCL2/MCP-1 Concentration, Mean” value in the test on CCL2/MCP-1 (setting [2]) came to 4629.2 pg/mL; in the test on CCL2/MCP-1 (setting [3]), 4545.3 pg/mL; in the test on CCL2/MCP-1 (setting [4]), 4390.9 pg/mL; in the test on CCL2/MCP-1 (setting [5]) it was 4562.3 pg/mL; in the test with CCL2/MCP-1 (setting [6]), 4578.9 pg/mL; with CCL2/MCP-1 (setting [7]) it was 4630.2 pg/mL. The “CCL2/MCP-1 Concentration” value is 4425.5 pg/ml and 4731.0 pg/ml (2×) in the test with CCL2/MCP-1 (setting [2]); 4528.4 pg/mL and 4477.1 pg/mL and 4630.2 pg/mL in the test on CCL2/MCP-1 (setting [3]); 4425.5 pg/ml (2×) and 4321.5 pg/ml with CCL2/MCP-1 (setting [4]); 4579.5 pg/mL and 4477.1 pg/mL and 4630.2 pg/mL with CCL2/MCP-1 (setting [5]); 4528.4 pg/mL and 4731.0 pg/mL and 4477.1 pg/mL with CCL2/MCP-1 (setting [6]); 4630.2 pg/mL in the test with CCL2/MCP-1 (setting [7]). The “LPS-induced CCL-2 (in words)” value in the test with CCL2/MCP-1 (at as low as 5 μM, LPS 5 ug/mL 24 hrs) is recorded as “significantly reduced”.
